Consider 56 molecules from patent US20250304537A1 (Repare Therapeutics Inc., priority 2022, published 2025).

One assay has as its system PKMYT1 (CDK1 pThr14) in FUOV1 cells. Description: PKMYT1 cell-based activity assay, CDK1 pThr14 AlphaLISA in FUOV1 cells. Conditions: 2 h, 2 h compound incubation, read-out: FUOV-1 CDK1 pThr14 IC50. The procedure:
To determine compound IC50 (PKMYT1 cell-based activity assay, CDK1 pThr14 AlphaLISA), FUOV1 cells were plated into a 96-well TC-treated culture plate at 50000 cells/well in a final volume of 100 μL of media. The plates were then allowed to equilibrate in a biological safety cabinet for 30 minutes before being placed in a humidified incubator at 37 C and 5% CO2 overnight. The next day, 2 μL of PKMYT1 inhibitors or DMSO were diluted in 400 μL of warmed culture media in a 96-well block using a Biomek FX liquid handler. Compounds were mixed in media and then 25 μL was dispensed into each well of the 96-well cell plate. Plates were centrifuged at 300 g for 10 seconds and then placed in the incubator for 2 hours. After the 2-hour incubation with compound, media was removed via aspiration using a multichannel pipette. 30 μL of 1× AlphaLISA lysis buffer (Perkin Elmer) supplemented with protease and phosphatase inhibitors as well as 1 mM PMSF, was added to each well. Plates were rotated at 500 g for 20 minutes to facilitate lysis. Plates were then sealed with aluminum foil and frozen at −80° C. for at least 1 hour. Lysates were thawed at 37° C. for 10 minutes, then 10 μL of each lysate was transferred in duplicate to a white 384-well assay plate. Antibody mixture was prepared in 1× AlphaLISA assay buffer (Perkin Elmer) containing antibodies (5 nM final concentration for rabbit pThr14-CDK1 from Abcam #ab58509 and mouse total CDK1 from ThermoFisher Scientific #33-1800). 5 μL of antibody mixture was added to each well of the assay plate. The assay plate was sealed and stored at 4° C. overnight. The next day, AlphaLISA bead mixture (Perkin Elmer) was prepared in 1× AlphaLISA assay buffer. Anti-rabbit IgG Acceptor (Perkin Elmer #AL104C) and anti-mouse IgG Donor beads (Perkin Elmer #AS104D) were prepared to a concentration of 80 μg/ml in assay buffer. 5 μL of bead mixture was added to each well of the assay plate (20 μg/ml final concentration for each bead). The plate was protected from light and incubated for 2 hours at room temperature. After a 2-hour incubation with beads, the plate was read using the Perkin Elmer EnVision Multimode plate reader with excitation at 680 nm and emission at 615 nm.
On the technique in general: Bead proximity is the source of the signal in Alpha formats.
One may read the IC50 as the midpoint of a concentration-inhibition curve. `Cc1ccc2[nH]ncc2c1-c1nc(-c2ccc(F)cc2Nc2nncs2)nc(C(N)=O)c1N` [Compound 579]: the half-maximal inhibitory concentration (IC50) amounted to 13 nM.
Still for that read-out and setting: the figure for `Cc1ccc2[nH]ncc2c1-c1nc(-c2ccc(F)cc2Nc2cccc(C#N)c2)nc(C(N)=O)c1N` [Compound 580, 5-amino-2-(2-((3-cyanophenyl)amino)-4-fluorophenyl)-6-(5-methyl-1H-indazol-4-yl)pyrimidine-4-carboxamide] is 44 nM; for `Cc1ccc2[nH]ncc2c1-c1nc(-c2ccc(F)cc2Nc2nccs2)nc(C(N)=O)c1N` [Compound 581] it is 40 nM.
As to `Cc1ccc2[nH]ncc2c1-c1nc(-c2cccnc2NC2CCCOC2)nc(C(N)=O)c1N` (centres unmarked) [Compound 582], the IC50 is 15 nM.
Still for that read-out and setting: the figure for `CSc1nccc(Nc2cc(F)ccc2-c2nc(C(N)=O)c(N)c(-c3c(C)ccc4[nH]ncc34)n2)n1` [Compound 583] is 122 nM; for `Cc1ccc2[nH]ncc2c1-c1nc(-c2ccc(F)cc2Nc2ccnc(C)c2C)nc(C(N)=O)c1N` [Compound 584] it is 18 nM.
In the case of `Cc1ccc2[nH]ncc2c1-c1nc(-c2ccc(F)cc2Nc2ccnc(C(F)(F)F)c2)nc(C(N)=O)c1N` [Compound 585], the IC50 is 127 nM.
As to `Cc1cc(Nc2cc(F)ccc2-c2nc(C(N)=O)c(N)c(-c3c(C)ccc4[nH]ncc34)n2)cc(C#N)n1` [Compound 586], the concentration for half-maximal inhibition (IC50) came out at 75 nM.
On the same count and under the same terms, next, `Cc1cnc(Nc2cc(F)ccc2-c2nc(C(N)=O)c(N)c(-c3c(C)ccc4[nH]ncc34)n2)s1` [Compound 587]: 172 nM; `Cc1csc(Nc2cc(F)ccc2-c2nc(C(N)=O)c(N)c(-c3c(C)ccc4[nH]ncc34)n2)n1` [Compound 588]: 45 nM; `Cc1ccc2[nH]ncc2c1-c1nc(-c2ccc(F)cc2Nc2ccccc2F)nc(C(N)=O)c1N` [Compound 589]: 111 nM.
Still for that read-out and setting: next, `Cc1ccc2[nH]ncc2c1-c1nc(-c2ccc(F)cc2Nc2ccncc2C#N)nc(C(N)=O)c1N` [Compound 590]: 8 nM; `Cc1ccc2[nH]ncc2c1-c1nc(-c2cccnc2NC2(C)CCOC2)nc(C(N)=O)c1N` (centres unmarked) [Compound 591]: 22 nM.
On the same count and under the same terms, the figure for `Cc1ccc2[nH]ncc2c1-c1nc(-c2cccnc2NC2CCOC(C)(C)C2)nc(C(N)=O)c1N` (centres unmarked) [Compound 592] is 603 nM; for `Cc1ccc2[nH]ncc2c1-c1nc(-c2cccnc2NCC2CCOCC2)nc(C(N)=O)c1N` [Compound 593] it is 297 nM; for `Cc1ccc2[nH]ncc2c1-c1nc(-c2cccnc2NC[C@H]2CCOC2)nc(C(N)=O)c1N` [Compound 594] it is 36 nM.
For the molecule `Cc1ccc2[nH]ncc2c1-c1nc(-c2cccnc2NC2CCOCC2(C)C)nc(C(N)=O)c1N` (centres unmarked) [Compound 596], the IC50 came out at 72 nM.
As for `Cc1ccc2[nH]ncc2c1-c1nc(-c2cccnc2NC2CCSCC2)nc(C(N)=O)c1N` [Compound 597], the IC50 was 49 nM.
Still for that read-out and setting: next, `COc1ncc(F)c(Nc2cc(F)ccc2-c2nc(C(N)=O)c(N)c(-c3c(C)ccc4[nH]ncc34)n2)n1` [Compound 627]: 12 nM.
The same measure, in the same setting: next, `Cc1ccc(-c2nc(C(N)=O)c(N)c(-c3c(C)ccc4[nH]ncc34)n2)c(Nc2nnccc2C)n1` [Compound 628]: 41 nM; `Cc1ccc2[nH]ncc2c1-c1nc(-c2cccnc2Nc2ccccc2Cl)nc(C(N)=O)c1N` [Compound 629]: 160 nM.
Same read-out and setting: next, `Cc1ccc2[nH]ncc2c1-c1nc(-c2cccnc2Nc2cccc(C#N)c2)nc(C(N)=O)c1N` [Compound 630]: 150 nM; `Cc1ccc2[nH]ncc2c1-c1nc(-c2cccnc2Nc2cccc(S(N)(=O)=O)c2)nc(C(N)=O)c1N` [Compound 631]: 96 nM; `COc1ccccc1Nc1ncccc1-c1nc(C(N)=O)c(N)c(-c2c(C)ccc3[nH]ncc23)n1` [Compound 632]: 601 nM.
`Cc1ccc2[nH]ncc2c1-c1nc(-c2ccc(F)cc2Nc2cc(C(C)(C)O)ccn2)nc(C(N)=O)c1N` [Compound 633]: the IC50 was 998 nM.
As to `Cc1cccc(Nc2ncccc2-c2nc(C(N)=O)c(N)c(-c3c(C)ccc4[nH]ncc34)n2)c1` [Compound 634], the IC50 was 569 nM.
The same measure, in the same setting: next, `Cc1ccc2[nH]ncc2c1-c1cc2c(oc3ccc(OC4CCOCC4)nc32)c(C(N)=O)c1N` [Compound 635]: 402 nM; `COc1ccc(-c2nc(C(N)=O)c(N)c(-c3c(C)ccc4[nH]ncc34)n2)c(Nc2ncccn2)c1` [Compound 636]: 97 nM; `Cc1ccc2[nH]ncc2c1-c1nc(-c2cc(Cl)ccc2Nc2ncccn2)nc(C(N)=O)c1N` [Compound 637]: 241 nM.
On the same count and under the same terms, next, `Cc1ccc2[nH]ncc2c1-c1nc(-c2cccnc2Nc2cccc(Cl)c2)nc(C(N)=O)c1N` [Compound 638]: 707 nM.
Turning to `Cc1ccc2[nH]ncc2c1-c1nc(-c2ccc(F)cc2Nc2ncnc(C)c2C#N)nc(C(N)=O)c1N` [Compound 639], the IC50 is 121 nM.
On to `Cc1ccc2[nH]ncc2c1-c1nc(-c2ccc(F)cc2Nc2nccnc2C)nc(C(N)=O)c1N` [Compound 640], for which the IC50 stood at 2 nM.
Turning to `Cc1ccc2[nH]ncc2c1-c1nc(-c2cccnc2Nc2ccc(F)nc2F)nc(C(N)=O)c1N` [Compound 641], the IC50 is 392 nM.
Still for that read-out and setting: the figure for `Cc1ccc2[nH]ncc2c1-c1nc(-c2cccnc2NCC2COCCO2)nc(C(N)=O)c1N` (centres unmarked) [Compound 642] is 472 nM; for `Cc1ccc2[nH]ncc2c1-c1nc(-c2cccnc2N[C@@H]2CCOC[C@@H]2F)nc(C(N)=O)c1N` [Compound 643] it is 7 nM; for `Cc1ccc2[nH]ncc2c1-c1nc(-c2cccnc2N[C@H]2CCOC[C@H]2F)nc(C(N)=O)c1N` [Compound 644] it is 10 nM.
Turning to `Cc1ccc2[nH]ncc2c1-c1nc(-c2ccc(C#N)cc2Nc2ncccn2)nc(C(N)=O)c1N` [Compound 645], the IC50 turned out to be 12 nM.
The same measure, in the same setting: the figure for `Cc1ccc(Nc2ncccn2)c(-c2nc(C(N)=O)c(N)c(-c3c(C)ccc4[nH]ncc34)n2)c1` [Compound 646] is 91 nM; for `Cc1ccc2[nH]ncc2c1-c1nc(-c2cccnc2N[C@@H]2CCOC[C@H]2F)nc(C(N)=O)c1N` [Compound 647] it is 28 nM; for `Cc1ccc2[nH]ncc2c1-c1nc(-c2cccnc2N[C@H]2CCOC[C@@H]2F)nc(C(N)=O)c1N` [Compound 648] it is 51 nM.
Same read-out and setting: next, `Cc1ccc2[nH]ncc2c1-c1nc(-c2cccnc2NC[C@H]2CCO2)nc(C(N)=O)c1N` [Compound 649]: more than 10000 nM.
For `Cc1ccc2[nH]ncc2c1-c1nc(-c2cccnc2NC[C@@H]2CCO2)nc(C(N)=O)c1N` [Compound 650], the IC50 was determined as 179 nM.
Still for that read-out and setting: next, `Cc1ccc2[nH]ncc2c1-c1nc(-c2cccnc2NC[C@@H]2CCCOC2)nc(C(N)=O)c1N` [Compound 651]: 130 nM.
The same measure, in the same setting: the figure for `Cc1ccc2[nH]ncc2c1-c1cc2c(oc3ccc(N4CCOCC4)nc32)c(C(N)=O)c1N` [Compound 652] is 266 nM; for `Cc1ccc(-c2nc(C(N)=O)c(N)c(-c3c(C)ccc4[nH]ncc34)n2)c(Nc2ncccn2)c1` [Compound 653] it is 61 nM.
On the same count and under the same terms, next, `Cc1ccc2[nH]ncc2c1-c1nc(-c2ccc(Cl)cc2Nc2ncccn2)nc(C(N)=O)c1N` [Compound 654]: 77 nM; `Cc1ccc2[nH]ncc2c1-c1nc(-c2ccc(F)cc2Nc2ncncc2C#N)nc(C(N)=O)c1N` [Compound 655]: 4 nM; `COc1cccc(Nc2ncccc2-c2nc(C(N)=O)c(N)c(-c3c(C)ccc4[nH]ncc34)n2)c1` [Compound 656]: 527 nM.
For the molecule `Cc1ccccc1Nc1ncccc1-c1nc(C(N)=O)c(N)c(-c2c(C)ccc3[nH]ncc23)n1` [Compound 657], the half-inhibitory concentration (IC50) was found to be 70 nM.
Take `Cc1ccc2[nH]ncc2c1-c1nc(-c2cccnc2Nc2cccc(F)n2)nc(C(N)=O)c1N` [Compound 659]: the IC50 was 185 nM.
Take `Cc1ccc2[nH]ncc2c1-c1nc(-c2cccnc2Nc2nc(F)ccc2F)nc(C(N)=O)c1N` [Compound 660]: the concentration for half-maximal inhibition (IC50) is 2 nM.
In the case of `Cc1ccc2[nH]ncc2c1-c1nc(-c2cccnc2NCC2(C)COC2)nc(C(N)=O)c1N` [Compound 661], the IC50 stood at 383 nM.
The same measure, in the same setting: the figure for `Cc1ccc2[nH]ncc2c1-c1nc(-c2cccnc2N2CCOCC2)nc(C(N)=O)c1N` [Compound 662] is more than 10000 nM.
`Cc1ccc2[nH]ncc2c1-c1nc(-c2ccc(F)cc2Nc2cccc(F)c2)nc(C(N)=O)c1N` [Compound 663]: the IC50 came out at 359 nM.
In the case of `Cc1ccncc1Nc1cc(F)ccc1-c1nc(C(N)=O)c(N)c(-c2c(C)ccc3[nH]ncc23)n1` [Compound 664], the IC50 worked out at 41 nM.

Still in this assay, the particulars now being: 2 h compound incubation, read-out: FUOV-1 CDK1 pThr14 IC50.
As for `Cc1ccc2[nH]ncc2c1-c1nc(-c2cccnc2Nc2cccnc2)nc(C(N)=O)c1N` [Compound 595], the IC50 worked out at 1540 nM.
